Measurements from paper PMC9636434, “Discovery of small molecule agonists of the Relaxin Family Peptide Receptor 2” (Communications Biology, 2022).
Where “and” joins values, the source holds several entries; their conditions need not be identical. Equal values may be shown once.

Tests used:
human RXFP3 = biological target: T1, human RXFP3 (Homo sapiens, UniProt Q9NSD7); assay: GloSensor cAMP assay in RXFP3 transiently transfected HEK293T cells; format: cell-based; conditions: for RLU (cAMP, raw): RXFP3, 0.1 µM isoproterenol, replicates (1)-(4)
T1 construct: host or cells: HEK293T (transient)
T1 sequence (Q9NSD7 1-469): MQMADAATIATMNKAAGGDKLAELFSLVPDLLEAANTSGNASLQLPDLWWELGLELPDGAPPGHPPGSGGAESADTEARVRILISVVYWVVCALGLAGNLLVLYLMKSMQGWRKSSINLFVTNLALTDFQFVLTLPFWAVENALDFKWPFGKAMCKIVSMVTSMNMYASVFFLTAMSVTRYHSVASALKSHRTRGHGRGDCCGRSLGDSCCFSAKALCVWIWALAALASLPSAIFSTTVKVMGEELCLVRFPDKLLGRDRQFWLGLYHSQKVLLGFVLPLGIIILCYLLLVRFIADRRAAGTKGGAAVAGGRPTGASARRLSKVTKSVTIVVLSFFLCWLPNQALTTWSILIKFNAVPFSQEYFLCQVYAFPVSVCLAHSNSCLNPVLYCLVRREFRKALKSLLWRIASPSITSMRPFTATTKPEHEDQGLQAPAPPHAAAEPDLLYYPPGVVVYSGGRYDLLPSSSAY

human LHCGR = human LHCGR (Homo sapiens, UniProt P22888); assay: HitHunter cAMP XS+ assay, cAMP Hunter cell line LHCGR; format: cell-based; conditions: for RLU: replicates (1),(2)
Source text: Results are reported as raw RLU values and represent the
mean ± SEM of 2 technical replicates.

FPR1 = FPR1 (Homo sapiens, UniProt P21462); assay: PRESTO-Tango β-arrestin recruitment, FPR1; format: cell-based; conditions: 10 µM compound; basal level of detection 3-fold RLU
human ADORA1 = biological target: T2, human ADORA1 (Homo sapiens, UniProt P30542); assay: GloSensor cAMP inhibition assay in ADORA1 transiently transfected HEK293T cells; format: cell-based; conditions: for RLU: replicates (1)-(4)
T2 sequence (P30542 1-326): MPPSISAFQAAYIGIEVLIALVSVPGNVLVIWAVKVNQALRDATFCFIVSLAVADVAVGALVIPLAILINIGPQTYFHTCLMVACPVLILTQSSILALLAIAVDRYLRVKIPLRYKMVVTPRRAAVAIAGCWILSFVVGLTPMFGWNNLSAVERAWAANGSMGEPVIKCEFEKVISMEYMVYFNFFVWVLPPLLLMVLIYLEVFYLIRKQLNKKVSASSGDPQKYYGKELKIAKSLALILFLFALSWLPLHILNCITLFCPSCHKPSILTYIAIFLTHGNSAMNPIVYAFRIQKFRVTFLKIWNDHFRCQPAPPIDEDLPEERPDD
Description: β-arrestin is an important GPCR adaptor protein that mediates several receptor processes including signaling, desensitization, and trafficking. […] GPCR-mediated β-arrestin recruitment for a panel of 320 human GPCRs was studied in transiently transfected HTLA cells treated with 10 µM compound. The results for all 320 GPCRs tested are summarized in Supplementary Data 1. […] ADORA1 activation by an agonist results in Gαi protein binding, an inhibition of adenylate cyclase and, therefore, a decrease in the cAMP concentration.
Experiments to analyze the cAMP response in RXFP3, RXFP4, and ADORA1 transiently transfected HEK293T cells was performed in the National Institute of Mental Health’s Psychoactive Drug Screening Program, Contract #HHSN-271-2018-00023-C (NIMH PDSP).
ADORA1 activation. cAMP in HEK293T cells transiently transfected with human
ADORA1 was induced by treatment with 0.1 µM of isoproterenol. cAMP inhibition is
Results are reported as raw
RLU values and represent the mean ± SEM of 4 technical replicates.
(1 picture or pasted object on this page, not shown here)

[1] = system: female gubernaculum (mouse RXFP2 receptor in vivo); assay: Gubernaculum development in female embryos of treated pregnant mice (histology); conditions: 30 mg/kg IP to pregnant females, E12.5 to E17.5
Description: The INSL3 surge that drives gubernaculum development during the transabdominal stage of testicular descent in male mice occurs between embryonic day E14.5 and 17.5[5],[6],[41]. In females, there is no detectable INSL3 expression and therefore the gubernaculum remains underdeveloped as a vestigial structure. […] Therefore, we hypothesized that the small molecule agonists of RXFP2 would show similar effects in female mice. Compound activity was tested by injecting pregnant females with the RXFP2 agonists starting from day E12.5 to E17.5 of embryonic development followed by histological evaluation of the gubernaculum in developing female embryos. […] At E18.5 the processus vaginalis or outpouching of the peritoneum occurs in males at the site of gubernacular caudal connection[43] (Fig. 3a). […] No differences were detected in the position of the ovaries in compound-treated female embryos and controls.
Fig. 3 RXFP2 agonists are biologically active and selective in vivo. a Diagram of the treatment protocol and representative histological section of the developed male gubernaculum at embryonic day 18.5 (upper left). b Representative histological sections showing a male-like invagination of the female gubernaculum in all compound-treated embryos (blue arrows). Four female embryos were analyzed per group. Scale bar = 100 µm. […]

[2] = cAMP induced by 0.1 µM isoproterenol

human LHCGR, sequence (P22888 27-699): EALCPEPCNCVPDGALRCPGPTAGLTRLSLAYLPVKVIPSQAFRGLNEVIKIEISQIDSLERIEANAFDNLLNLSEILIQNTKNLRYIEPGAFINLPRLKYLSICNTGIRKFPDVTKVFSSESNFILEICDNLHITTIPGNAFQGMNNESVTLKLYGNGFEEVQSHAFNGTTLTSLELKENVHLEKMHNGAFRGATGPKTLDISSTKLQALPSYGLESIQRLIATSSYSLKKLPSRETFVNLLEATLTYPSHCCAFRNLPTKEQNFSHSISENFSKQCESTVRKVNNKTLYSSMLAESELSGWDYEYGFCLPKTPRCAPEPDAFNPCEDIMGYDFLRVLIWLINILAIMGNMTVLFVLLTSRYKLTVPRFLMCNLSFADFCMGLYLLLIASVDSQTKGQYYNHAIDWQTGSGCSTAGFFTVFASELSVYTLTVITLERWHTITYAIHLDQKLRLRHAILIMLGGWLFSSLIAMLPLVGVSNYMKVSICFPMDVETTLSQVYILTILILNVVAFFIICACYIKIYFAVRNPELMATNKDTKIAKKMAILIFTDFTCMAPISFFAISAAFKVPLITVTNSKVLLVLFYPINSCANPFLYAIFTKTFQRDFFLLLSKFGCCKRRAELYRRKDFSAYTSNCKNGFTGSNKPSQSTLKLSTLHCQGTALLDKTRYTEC
FPR1, sequence (P21462 whole entry): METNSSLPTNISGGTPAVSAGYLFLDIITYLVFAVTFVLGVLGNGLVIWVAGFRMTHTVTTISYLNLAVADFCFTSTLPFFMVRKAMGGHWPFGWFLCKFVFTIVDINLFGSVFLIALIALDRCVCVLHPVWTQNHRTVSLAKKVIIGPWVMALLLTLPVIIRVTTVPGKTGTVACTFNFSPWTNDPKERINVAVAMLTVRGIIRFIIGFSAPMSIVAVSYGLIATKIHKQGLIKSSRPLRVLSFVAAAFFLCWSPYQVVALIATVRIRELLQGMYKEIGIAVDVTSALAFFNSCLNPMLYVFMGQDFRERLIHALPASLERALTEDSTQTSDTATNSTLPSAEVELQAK

## O=C1Nc2ccc(-c3cc(C(F)(F)F)cc(C(F)(F)F)c3)cc2C(=O)N2CCN(C(=O)COc3ccc(OC(F)(F)F)cc3I)C[C@@H]12 [compound 6641]
Human RXFP3; Log [M] -4.52
  RLU (cAMP, raw): 1801.05 RLU and 1842.11 RLU and 1885.55 RLU and 1904.59 RLU
Human RXFP3; Log [M] -5
  RLU (cAMP, raw): 1713.57 RLU and 1782 RLU and 1870.67 RLU and 1664.77 RLU
Human RXFP3; Log [M] -5.52
  RLU (cAMP, raw): 1763.55 RLU and 1915.9 RLU and 1776.65 RLU and 1719.52 RLU
Human RXFP3; Log [M] -6
  RLU (cAMP, raw): 2045.03 RLU and 1694.52 RLU and 1928.99 RLU and 1704.05 RLU
Human RXFP3; Log [M] -6.52
  RLU (cAMP, raw): 1626.68 RLU and 1976 RLU and 1728.44 RLU and 1743.92 RLU
Human RXFP3; Log [M] -7
  RLU (cAMP, raw): 2133.7 RLU and 1895.07 RLU and 2053.37 RLU and 1981.36 RLU
Human RXFP3; Log [M] -7.52
  RLU (cAMP, raw): 1652.87 RLU and 1825.44 RLU and 1426.73 RLU and 1642.75 RLU
Human RXFP3; Log [M] -8
  RLU (cAMP, raw): 1859.96 RLU and 1760.58 RLU and 1940.89 RLU and 1974.81 RLU
Human RXFP3; Log [M] -8.52
  RLU (cAMP, raw): 2192.97 RLU and 1919.63 RLU
Human RXFP3; Log [M] -9
  RLU (cAMP, raw): 1940.02 RLU and 2105.38 RLU and 1999.67 RLU and 2166.54 RLU
Human RXFP3; Log [M] -9.52
  RLU (cAMP, raw): 2103.87 RLU and 2056.3 RLU and 1688.58 RLU
Human RXFP3; Log [M] -10
  RLU (cAMP, raw): 1933.98 RLU and 1927.18 RLU and 2266.97 RLU and 1930.96 RLU
Human RXFP3; Log [M] -10.52
  RLU (cAMP, raw): 1985.33 RLU and 1919.63 RLU and 2191.46 RLU and 1872.07 RLU
Human RXFP3; Log [M] -11
  RLU (cAMP, raw): 2121.99 RLU and 2313.03 RLU and 1878.86 RLU and 1896.98 RLU
Human RXFP3; Log [M] -11.52
  RLU (cAMP, raw): 2326.62 RLU and 1848.66 RLU and 1903.78 RLU and 1954.37 RLU
Human RXFP3; Log [M] -12
  RLU (cAMP, raw): 1756.54 RLU and 2242.81 RLU and 2177.87 RLU and 2001.94 RLU
Human RXFP3; [2]
  activation of RXFP3 (cAMP inhibition): does not activate
Human LHCGR; Hit Hunter cAMP assay
  cAMP response through LHCGR: did not result in an increase of cAMP level
Human LHCGR; Log [M] -4.70
  RLU: 1280 RLU and 1080 RLU
Human LHCGR; Log [M] -5.18
  RLU: 1000 RLU
Human LHCGR; Log [M] -5.65
  RLU: 1080 RLU and 1000 RLU
Human LHCGR; Log [M] -6.13
  RLU: 1080 RLU
Human LHCGR; Log [M] -6.61
  RLU: 1040 RLU
Human LHCGR; Log [M] -7.08
  RLU: 1200 RLU and 920 RLU
Human LHCGR; Log [M] -7.56
  RLU: 1000 RLU
Human LHCGR; Log [M] -8.04
  RLU: 960 RLU and 680 RLU
Human LHCGR; Log [M] -8.52
  RLU: 1040 RLU
Human LHCGR; Log [M] -8.99
  RLU: 960 RLU and 1040 RLU
FPR1
  β-arrestin recruitment, FPR1 (mean ± SEM): 3.11 ± 0.29 fold RLU
Human ADORA1; Log [M] -5
  RLU: 501.695 RLU and 432.184 RLU and 479.802 RLU
Human ADORA1; Log [M] -5.52
  RLU: 440.941 RLU and 426.71 RLU and 354.463 RLU and 361.031 RLU
Human ADORA1; Log [M] -6
  RLU: 417.406 RLU and 427.258 RLU and 437.11 RLU and 429.447 RLU
Human ADORA1; Log [M] -6.52
  RLU: 436.015 RLU and 453.53 RLU and 363.767 RLU and 397.155 RLU
Human ADORA1; Log [M] -7
  RLU: 393.323 RLU and 486.917 RLU and 461.192 RLU and 440.394 RLU
Human ADORA1; Log [M] -7.52
  RLU: 405.912 RLU and 426.71 RLU and 325.454 RLU and 420.142 RLU
Human ADORA1; Log [M] -8
  RLU: 517.02 RLU and 436.015 RLU and 373.619 RLU and 451.34 RLU
Human ADORA1; Log [M] -8.52
  RLU: 377.126 RLU and 431.072 RLU and 331.699 RLU and 385.644 RLU
Human ADORA1; Log [M] -9
  RLU: 420.424 RLU and 419.005 RLU and 360.091 RLU and 409.777 RLU
Human ADORA1; Log [M] -9.52
  RLU: 407.648 RLU and 406.938 RLU and 409.777 RLU and 342.346 RLU
Human ADORA1; [2]
  cAMP inhibition in ADORA1-HEK293T transfected cells: failed to detect any significant changes
[1]
  gubernaculum phenotype of female embryos at E18.5: male-like invagination of the gubernaculum
